Results as given in patent US7074824B2, “Pharmaceutical compositions containing beta-lapachone, or derivatives or analogs thereof, and methods of using same” (Arqule, Inc., priority 2001, dated 2006).
In brackets after ≈: the same amount, converted by molar mass.

Assays:
[1] = system: RPMI 8226 multiple myeloma cells; assay type: in vivo
Description: Chemicals. β-lapachone was synthesized and dissolved in 40% hydroxypropyl β-cyclodextrin at a concentration of 10 mg/mL and kept at room temperature in a dark container. Hydroxypropyl β-cyclodextrin was dissolved in distilled water at a concentration of 10 mg/mL and kept at room temperature. […]®, a basement membrane matrix was purchased from Becton Dickinson Labware (BD Biosciences, Two Oak Park Drive, Bedford, Mass.) and was dissolved in Dulbecco's modified Eagle's medium with 50 μg/mL Gentamycin and kept frozen at −20° C. […]® is extracted from the Engelbreth-Holm-Swarm mouse tumor, a tumor rich in extracellular matrix proteins. The major matrix components are laminin, collagen IV, entactin, and heparan sulfate proteoglycan (perlecan); the matrix also contains growth factors, matrix metalloproteinases (MMPs [collagenases]), and plasminogen activators, without any inhibitors of metalloproteinases (TIMPs). The […] matrix is a solution at 4° C. and gels at room temperature to form a three-dimensional reconstituted basement membrane. This model system closely mimics the structure, composition, physical properties, and functional characteristics of the basement membrane in vivo and provides a physiologically relevant environment for studies of cell morphology, biochemical function, migration or invasion, and gene expression. The frozen […]® matrix was thawed overnight at 4° C. before use.
Cell Cultures. RPMI8226 cells (a human multiple myeloma cell line) were provided Dr. William Dalton (Lee Moffit Cancer Center, Tampa, Fla.). They were maintained by frequent passages in RPMI 1640 (Cellgro®, Mediatech Inc., Herndon, Va.) containing 10% Fetal Bovine serum (FBS) (GibcoBRL, Life Technologies, Grand Island, N.Y.) supplemented with 2×10^−3M L-Glutamine, 100 units/mL penicillin (Pen), and 100 μg/mL streptomycin (Cellgro®D, Mediatech Inc., Herndon, Va.) in 162 cm^2 cell culture flasks (Costar®, Corning Incorporated, Corning, N.Y.). The exponentially growing cell lines were CD138+, CD38+/CD45RA−, EBV negative, and pathogen free.
Mice. Forty male 6 week old Bg-Nu-Xid mice (deficient in T, B, and NK cells) were obtained from the FCRDC, Frederick, Bethesda, Md. and housed at the Redstone animal facility at DFCI. These mice have 3 separate mutations—Beige (Bg) autosomal recessive mutation associated with impaired chemotaxis and motility of macrophages & deficiency of NK cells; the nude (nu) autosomal recessive mutation associated with depletion of T cells due to thymic agenesis; and the X-linked immune defect (xid) which produces functional defects of B lymphocytes. The animals were raised in a barrier facility in cages with saw dust bedding and laminar air at 19–22° C. Rodent food and sterile drinking water were supplied ad libitum. The mice were quarantined to rule out development of any disease. One mouse died during transport, and 5 others were lost because of dehydration (n=2), probable infection (n=2) and excessive bleeding due to trauma (n=1). After 1 week, enrofloxacin (a quinolone antibiotic) was added in drinking water of all mice. All procedures involving animals were approved by and performed according to guidelines of the Institutional Animal Care and Use Committee of the Dana Farber Cancer Institute (DFCI).
Histologic Analysis. The mice were sacrificed when the tumor reached 20 mm in their largest diameter or they became moribund, as per the policy of the Animal Protocol Committee at Dana Farber Cancer Institute. […]

[2] = Solubility of β-lapachone in aqueous HPBCD solutions (heated to 70° C., filtered, HPLC); assay type: physicochemical
Description: A β-lapachone/HPBCD solution was prepared without prior solubilization of the β-lapachone in ethanol solution. β-lapachone was combined with aqueous solutions of HPBCD in varying concentrations and the mixtures were heated to 70° C., then allowed to cool to room temperature. The cooled solutions were filtered (0.22μ), and the amount of the solubilized β-lapachone was measured by HPLC analysis.

[3] = Solubility in water and in 40% (w/v) HPBCD solution by UV absorbance; assay type: physicochemical; conditions: for solubility at 1 h: thermodynamic from solid
Description: To determine solubilities, test compounds were first dissolved in ethanol to prepare standard solutions with concentrations in the range 2.5–10 mg/ml, then were diluted with to 10 μg/ml with water. UV scans were obtained of the 10 μg/ml standard solutions, and the wavelength of maximum absorbance and the absorbance at the maximum absorbance wavelength were determined. For each test compound 50 μl aliquots of water and of 40% HPBCD were added to individual Eppendorf tubes containing approximately 1 mg of compound each. The tubes were heated in a 30° C. waterbath, vortexed, then centrifuged at 15,000 rpm for 5 min. This step was repeated, then the tubes were cooled to room temperature for 1 hour, then were centrifuged again. The supernatant from each tube was diluted with water into the appropriate absorbance range, and the UV absorbance was measured at the compound's absorbance maximum wavelength. The concentrations of these saturated solutions were then calculated by ratio to the 10 μg/ml ethanolic standard solutions.

[4] = target: human DNA Topoisomerases II (Homo sapiens, UniProt P11388); conditions: cited from earlier work
human DNA Topoisomerases II, sequence (P11388 whole entry): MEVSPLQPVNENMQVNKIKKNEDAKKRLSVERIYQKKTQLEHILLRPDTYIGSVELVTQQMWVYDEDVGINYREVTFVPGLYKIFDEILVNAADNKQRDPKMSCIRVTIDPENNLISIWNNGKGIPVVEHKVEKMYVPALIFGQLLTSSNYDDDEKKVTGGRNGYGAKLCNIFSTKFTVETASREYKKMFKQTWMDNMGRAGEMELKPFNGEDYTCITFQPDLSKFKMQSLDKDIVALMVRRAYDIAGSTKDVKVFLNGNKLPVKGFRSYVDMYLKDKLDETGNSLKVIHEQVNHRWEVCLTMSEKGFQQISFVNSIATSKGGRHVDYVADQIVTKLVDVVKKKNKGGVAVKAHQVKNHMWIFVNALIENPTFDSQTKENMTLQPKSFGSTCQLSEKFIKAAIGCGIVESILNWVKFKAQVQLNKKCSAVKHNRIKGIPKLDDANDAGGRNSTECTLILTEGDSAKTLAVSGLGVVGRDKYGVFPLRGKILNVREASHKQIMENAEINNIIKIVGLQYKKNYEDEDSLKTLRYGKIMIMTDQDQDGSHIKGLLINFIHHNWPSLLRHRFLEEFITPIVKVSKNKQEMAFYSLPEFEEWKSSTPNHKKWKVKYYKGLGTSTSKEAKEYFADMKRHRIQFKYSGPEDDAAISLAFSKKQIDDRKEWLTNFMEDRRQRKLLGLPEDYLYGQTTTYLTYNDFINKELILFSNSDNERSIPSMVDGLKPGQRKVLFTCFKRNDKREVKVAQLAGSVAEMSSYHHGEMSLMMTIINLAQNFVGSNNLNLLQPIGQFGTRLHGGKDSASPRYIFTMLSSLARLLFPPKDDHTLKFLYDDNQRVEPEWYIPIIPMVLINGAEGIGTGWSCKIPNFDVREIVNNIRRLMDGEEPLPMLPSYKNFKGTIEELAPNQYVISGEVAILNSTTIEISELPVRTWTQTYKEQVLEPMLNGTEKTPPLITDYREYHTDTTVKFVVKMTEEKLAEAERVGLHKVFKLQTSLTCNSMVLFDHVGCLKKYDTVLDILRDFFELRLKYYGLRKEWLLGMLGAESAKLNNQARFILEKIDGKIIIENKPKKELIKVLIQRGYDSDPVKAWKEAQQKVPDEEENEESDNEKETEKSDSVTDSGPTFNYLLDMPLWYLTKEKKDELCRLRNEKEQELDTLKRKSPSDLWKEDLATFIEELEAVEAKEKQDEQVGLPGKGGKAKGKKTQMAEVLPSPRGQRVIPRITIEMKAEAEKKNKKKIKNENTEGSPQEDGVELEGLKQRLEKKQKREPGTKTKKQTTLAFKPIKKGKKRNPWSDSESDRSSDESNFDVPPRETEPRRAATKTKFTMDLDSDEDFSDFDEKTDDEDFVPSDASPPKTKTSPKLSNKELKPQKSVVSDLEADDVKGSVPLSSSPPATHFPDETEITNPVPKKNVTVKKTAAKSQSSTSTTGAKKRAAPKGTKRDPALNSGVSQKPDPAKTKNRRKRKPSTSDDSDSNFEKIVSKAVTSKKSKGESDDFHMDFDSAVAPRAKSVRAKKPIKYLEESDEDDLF

[5] = system: six human cancer cells lines; assay: MTS growth inhibition assay, summary over all lines; assay type: cell-based; conditions: all six tumor cell lines; tested up to 20 μM
Description: A2780 and A2780/CP (ovarian); MCF-7 (breast); HT-29 (colon); BxPC-3 (pancreas); and A549 (lung). The human tumor cell lines (purchased from ATCC, Rockville, Md.) were cultured at 37° C. (5% CO2) in RPMI medium (RPMI; Nova Tech, Grand Island, N.Y.) containing 10% fetal bovine serum (FBS, Nova Tech). Aliquots of cells were seeded into each well of 96-well microtiter plates at a final concentration of 10^4 cells/well and incubated for 24 h prior to exposure to test compounds. […] The MTS assay is a colorimetric assay based upon the ability of viable cells to convert MTS, a novel tetrazolium compound and electron-coupling reagent, to a colored formazan product that is soluble in cell culture medium. The cell concentration is then determined by measuring the absorbance of the formazan product at 490 nm. Growth inhibition, expressed as IC50, is calculated relative to vehicle-treated control cells.

human cancer cell lines = conditions: single agent, typical range; read-out: antineoplastic activity (IC50); cited from earlier work
human PBMC = conditions: cited from earlier work

CC1(C)CCC2=C(O1)c1ccccc1C(=O)C2=O [β-lapachone]
tumor volume versus control group ([1]; 50 mg/kg i.p. every alternate day in 40% HPBCD, by day 11, p=0.007): statistically significant decrease in tumor volume
survival compared to controls ([1]; day 5, 7, 9, 11, 13, 15 and 17, FIG. 16): survival was greater
MM cell apoptosis in tumors (mean±SD) ([1]; histopathology, light microscopy, p=0.001 versus control): 41.1%±12.7
kidney histology ([1]; mouse, in vivo): mild tubular vacuolization
microscopic toxicity on liver, heart, lung, brain, and spleen ([1]; mouse, in vivo): no microscopic evidence of any toxicity
β-lapachone (highest conc.) ([2]; 10% HPBCD in water): 3.1 mg/mL
β-lapachone (highest conc.) ([2]; 20% HPBCD in water): 7.4 mg/mL
β-lapachone (highest conc.) ([2]; 30% HPBCD in water): 10.8 mg/mL
β-lapachone (highest conc.) ([2]; 40% HPBCD in water): 15.8 mg/mL
Solubility Enhancement ([3]; 1 h): 323 −Fold
solubility at 1 h ([3]; aqueous with cosolvent or surfactant or cyclodextrin): 14000 µg/mL (≈ 57.8 mM)
solubility at 1 h ([3]; water): 43 µg/mL (≈ 0.177 mM)
in vitro inhibition [4]: potent in vitro inhibition
growth inhibitory activity, verbal summary [5]: dose-dependent inhibitory effect
IC50 (human cancer cell lines): 1 to 10 µM
cytotoxic effects on normal cells (human PBMC): No cytotoxic effects were observed
